Values of other authors, collected in article PMC11901578, “Polymethoxyflavones and Bone Metabolism” (Nutrients, 2025).
Where two headings read alike, the source gives them in different places.

Legend:
[1] = test system: osteoclast differentiation; parameters: method as in PMID 26044862; conditions: 20 μM, compared to 20 μM laricitrin and 20 μM myricetin; cited from earlier work
[2] = test system: human umbilical vein endothelial cells (HUVECs); parameters: method as in PMID 22707269; conditions: read-out: IC50, anti-proliferative effect on HUVECs; cited from earlier work
[3] = test system: rats with ligature-induced periodontitis; parameters: method as in PMID 38734708; conditions: oral 5, 10, and 20 mg/kg/day for 3 weeks; cited from earlier work
DMM-OA mice = conditions: DMM-OA mice, oral 50 mg/kg/day for 8 weeks; cited from earlier work
HL-60 cells = test system: HL-60 cells; parameters: method as in PMID 23225422; conditions: read-out: IC50, anti-proliferative effect on HL-60 cells; cited from earlier work
[4] = test system: BTB and CNC homology 1 (BACH1); parameters: method as in PMID 38734708; conditions: cited from earlier work
zebrafish embryos = test system: zebrafish embryos; parameters: method as in PMID 22707269; conditions: 30 μM, cited from earlier work
[5] = test system: periodontal ligament cells; parameters: method as in PMID 38734708; conditions: 2.5, 5, and 10 μM; cited from earlier work
[6] = test system: bone resorption in mouse calvarial or alveolar bone organ cultures; conditions: 30 μM, mouse calvarial or alveolar bone organ cultures; cited from earlier work
[7] = test system: IL-1β mRNA expression in the hippocampus; parameters: method as in PMID 25884208; conditions: mice, subcutaneous 100 mg/kg; cited from earlier work
serum TNF-α levels = test system: serum TNF-α levels; parameters: method as in PMID 18816060; conditions: rats, intraperitoneal 100 mg/kg; cited from earlier work
Raw264.7 = conditions: RANKL +, cited from earlier work; for IC50: read-out: IC50, osteoclast differentiation in Raw264.7 cultures
[8] = test system: osteoclast differentiation in co-cultures of osteoblasts and bone marrow cells; conditions: cited from earlier work; for IC50: IL-1 +, read-out: IC50, osteoclast differentiation in co-culture system; for inhibitory effect on IL-1-induced osteoclast differentiation relative to nobiletin and tangeretin, respectively: TRAP-positive osteoclasts
[9] = test system: osteoclast differentiation; parameters: method as in PMID 22850615; conditions: 30 μM; cited from earlier work
[10] = test system: rheumatoid synovial fibroblasts (RASFs); parameters: method as in doi:10.3329/bjp.v10i3.22865; conditions: 50 and 100 μM; cited from earlier work
[11] = test system: osteoclast differentiation in co-culture system; conditions: LPS +, 30 μM; cited from earlier work
[12] = test system: alveolar bone loss in mice; conditions: LPS +, cited from earlier work
CIA rats = test system: CIA rats; parameters: method as in PMID 31344704; conditions: daily oral administration for 14 days; cited from earlier work
[13] = test system: bone marrow macrophage (BMM) cultures; conditions: 2, 10, and 50 μM; cited from earlier work
[14] = test system: human periodontal ligament cells (HPDLCs); conditions: TNF-α, human periodontal ligament cells; cited from earlier work

COc1cc(-c2oc3cc(O)cc(O)c3c(=O)c2O)cc(OC)c1O [Syringetin, 3,4′,5,7-Tetrahydroxy-3′,5′-dimethoxyflavone]
inhibitory effect on M-CSF-/RANKL-induced osteoclast differentiation [1]: strongest inhibitory effect

COc1ccc(-c2cc(=O)c3c(OC)c(OC)c(OC)cc3o2)cc1OC [Sinensetin, 3′,4′,5,6,7-Pentamethoxyflavone]
IC50 [2]: 24 µM | alveolar bone resorption [3]: suppressed alveolar bone resorption | disease progression (DMM-OA mice): protects against disease progression | IC50 (HL-60 cells): > 400 µM | binding to BACH1 [4]: directly binds | anti-angiogenic effect on zebrafish embryos, inhibited (zebrafish embryos; listed as sinensetin): approximately 95% | anti-angiogenic effect on zebrafish embryos, inhibited (zebrafish embryos): 95% inhibited [47] | oxidative stress and inflammation [5]: dose-dependently reduced

O=c1cc(-c2ccc(O)cc2)oc2cc(O)c(O)c(O)c12 [Scutellarein]
IC50 [2]: > 100 µM

COc1ccc(-c2oc3c(OC)c(OC)c(OC)c(OC)c3c(=O)c2OC)cc1OC [Heptamethoxyflavone, 3,3′,4′,5,6,7,8,-Heptamethoxyflavone]
IC50 (HL-60 cells): 63 µM | inhibition of LPS-induced bone resorption [6]: > 90% | IL-1β mRNA expression in the hippocampus [7]: downregulates | serum TNF-α levels (serum TNF-α levels): reduced serum TNF-α levels

COc1c(OC)c(OC)c2c(=O)cc(-c3ccc(O)cc3)oc2c1OC [4′-Demethyltangeretin, 4′-Hydroxy-5,6,7,8-Tetramethoxyflavone]
IC50 (Raw264.7): 7 µM | IC50 [8]: 18 µM | inhibitory effect on IL-1-induced osteoclast differentiation relative to nobiletin and tangeretin, respectively [8]: potent inhibitory effects

COc1cc(-c2cc(=O)c3c(OC)c(OC)c(OC)c(OC)c3o2)ccc1O [4′-Demethylnobiletin, 4′-Hydroxy-3′,5,6,7,8-Pentamethoxyflavone]
IC50 (Raw264.7): 1 µM | IC50 [8]: 13 µM | inhibitory effect on IL-1-induced osteoclast differentiation relative to nobiletin and tangeretin, respectively [8]: potent inhibitory effects

COc1ccc(-c2cc(=O)c3c(OC)c(OC)c(OC)cc3o2)cc1 [Scutellarein tetra-methylether]
IC50 [2]: > 100 µM

COc1ccc(-c2cc(=O)c3c(OC)c(OC)c(OC)c(OC)c3o2)cc1 [Tangeretin, 4′,5,6,7,8-Pentamethoxyflavone]
osteoclast differentiation in Raw264.7 cultures, inhibited (Raw264.7; 30 μM): 71% inhibited [8] | IC50 (Raw264.7): 16 µM | suppression of osteoclast differentiation induced by IL-1, LPS, or soluble RANKL (sRANKL) [9]: 70–90% | proliferation of rheumatoid synovial fibroblasts (RASFs) [10]: significantly inhibits | osteoclast differentiation in co-culture system, inhibited [11]: 94% inhibited [8] | IC50 (HL-60 cells): 32 µM | IC50 [8]: 18 µM | alveolar bone loss in mice, restored ([12]; 30 μg/mouse): 0% restored [8] | alveolar bone loss in mice, restored ([12]; 100 μg/mouse): 2% restored [8] | alveolar bone loss in mice, restored ([12]; 500 μg/mouse): 4% restored [8] | oxidative stress and inflammation (CIA rats): reduced oxidative stress and inflammation

COc1cc(-c2cc(=O)c3c(O)c(OC)c(O)c(OC)c3o2)ccc1O [Sudachitin, 4′,5,7-Trihydroxy-3′,6,8-trimethoxyflavone]
RANKL-induced osteoclast differentiation [13]: dose-dependently suppressed | production of MMP-1 and MMP-3 [14]: reduced the production

COc1ccc(-c2oc3c(OC)c(OC)c(OC)c(OC)c3c(=O)c2O)cc1OC [Natsudaidain, 3′,4′,5,6,7,8-Hexamethoxy-3-hydroxyflavone]
IC50 (HL-60 cells): 5 µM

COc1ccc([C@@H]2CC(=O)c3c(O)cc(O)cc3O2)cc1O [Hesperetin, reference compound]
IC50 [2]: > 100 µM | anti-angiogenic effect on zebrafish embryos, inhibited (zebrafish embryos; listed as hesperitin): ~30% | anti-angiogenic effect on zebrafish embryos, inhibited (zebrafish embryos): 30% inhibited [47]
